Laboratory results reported in US20220041588A1, “SUBSTITUTED IMIDAZO[1,2-A]PYRIDINE AND [1,2,4]TRIAZOLO[1,5-A]PYRIDINE COMPOUNDS AS RET KINASE INHIBITORS” (FOCHON PHARMACEUTICALS, LTD., priority 2018, published 2022).

Test system: TT (RET C634W) cells
Assay: Cell proliferation assay (MTS), TT cells
Type: cell-based
Conditions: Homo sapiens, TT, 72 h, 72 h incubation, MTS readout
Method: MTS testing kit was purchased from Promega. The RPMI-1640, F12, F12K, Fetal bovine serum and Penicillin-Streptomycin were purchased from BI. Glutamine and Dimethyl sulfoxide (DMSO) were purchased from Sigma. TT cells were cultured in F12K supplemented with 10% FBS and LC-2/ad cells were cultured in HamF12: RPMI1640 (1:1) supplemented with 10% FBS and 2 mM Glutamine.
To investigate whether a compound is able to inhibit the activity of RET fusion and/or mutation in cells, a mechanism-based assay using TT (RET C634W) and LC-2/ad (CCDCl6-RET) cell lines was developed. In this assay, the inhibition of RET fusion and/or mutation was reflected by the inhibition of cell proliferation of TT and LC-2/ad cells. Cells were plated into 96-well plates at the optimized cell density (TT: 5000 cells/well; LC-2/ad: 5000 cells/well). Plates were incubated at 37° C., with 5% CO2 for 24 h. Compounds were serially diluted and added to the plates with the final concentrations as 10000, 3333.3, 1111.1, […], 123.5, 41.2, 13.7, 4.6 and 1.5 nM. Plates were incubated at 37° C., with 5% CO2 for 72 h. An aliquot of 20 μL MTS/100 μL medium mixture solution were added to each well and the plates were incubated for exactly 2 h. The reaction was stopped by adding 25 μL 10% SDS to each well. The absorbance was measured by a microplate reader at 490 nm and 650 nm (reference wavelength). IC50 was calculated using GraphPad Prism 5.0.

| Structure (SMILES) | IC50 |
| --- | --- |
| Cn1cc(-c2cc(-c3ccc(N4CCN(Cc5cc(F)ccc5F)CC4)nc3)n3c(C#N)cnc3c2)cn1 [Example 8, 5-(6-(4-(2,5-difluorobenzyl)piperazin-1-yl)pyridin-3-yl)-7-(1-methyl-1H-pyrazol-4-yl)imidazo[1,2-a]pyridine-3-carbonitrile] | 39 nM |
| Cc1cccnc1CN1CCN(c2ccc(-c3cc(-c4cnn(C)c4)cc4ncc(C#N)n34)cn2)CC1 [Example 9, 7-(1-methyl-1H-pyrazol-4-yl)-5-(6-(4-((3-methylpyridin-2-yl)methyl)pi-perazin-1-yl)pyridin-3-yl)imidazo[1,2-a]pyridine-3-carbonitrile] | 79 nM |
| C[C@@H](C(=O)N1CCN(c2ccc(-c3cc(-c4cnn(C)c4)cc4ncc(C#N)n34)cn2)CC1)c1ccccc1 [Example 10, (R)-7-(1-methyl-1H-pyrazol-4-yl)-5-(6-(4-(2-phenylpropanoyl)piperazin-1-yl)pyridin-3-yl)imidazo[1,2-a]pyri-dine-3-carbonitrile] | 6 nM |
| COc1ccc(CN2CCN(c3ccc(-c4nc(-c5cnn(C)c5)cc5ncc(C#N)n45)cn3)CC2)nc1 [Example 24, 5-(6-(4-((5-methoxypyridin-2-yl)meth-yl)piperazin-1-yl)pyridin-3-yl)-7-(1-methyl-1H-pyrazol-4-yl)imidazo[1,2-c]pyrimidine-3-carbonitrile] | 86 nM |
| Cn1cc(-c2cc3ncc(C#N)n3c(-c3ccc(N4CCN(Cc5ccccc5)CC4)nc3)n2)cn1 [Example 25, 5-(6-(4-benzylpiperazin-1-yl)pyridin-3-yl)-7-(1-methyl-1H-pyrazol-4-yl) imidazo[1,2-c]pyrimidine-3-carbonitrile] | 79 nM |
| CN(C)c1ccc(CN2CCN(c3ccc(-c4cc(-c5cnn(C)c5)cc5ncc(C#N)n45)cn3)CC2)cn1 [Example 28, 5-(6-(4-((6-(dimethylamino)pyridin-3-yl)methyl)piperazin-1-yl)pyridin-3-yl)-7-(1-methyl-1H-pyrazol-4-yl)im-idazo[1,2-a]pyridine-3-carbonitrile] | 79 nM |
| COc1ccccc1CN1CCN(c2ccc(-c3cc(-c4cnn(C)c4)cc4ncc(C#N)n34)cn2)CC1 [Example 29, 5-(6-(4-(2-methoxybenzyl)piperazin-1-yl)pyridin-3-yl)-7-(1-methyl-1H-pyrazol-4-yl)imidazo[1,2-a]pyridine-3-carbonitrile] | 84 nM |
| Cn1cc(-c2cc(-c3ccc(N4CCN(Cc5c(F)cccc5F)CC4)nc3)n3c(C#N)cnc3c2)cn1 [Example 35, 5-(6-(4-(2,6-difluorobenzyl)piperazin-1-yl)pyridin-3-yl)-7-(1-methyl-1H-pyrazol-4-yl)imidazo[1,2-a]pyridine-3-carbonitrile] | 1 nM |
| Cn1cc(-c2cc(-c3ccc(N4CCN(Cc5ccc6ncn(C)c6c5)CC4)nc3)n3c(C#N)cnc3c2)cn1 [Example 36, 5-(6-(4-((1-methyl-1H-benzo[d]imid-azol-6-yl)methyl)piperazin-1-yl)pyri-din-3-yl)-7-(1-methyl-1H-pyrazol-4-yl)imidazo[1,2-a]pyridine-3-carboni-trile] | 62 nM |
| CN(C)[C@@H](C(=O)N1CCN(c2ccc(-c3cc(-c4cnn(C)c4)cc4ncc(C#N)n34)cn2)CC1)c1cccc(Cl)c1 [Example 39, (R)-5-(6-(4-(2-(3-chlorophenyl)-2-(dimethylamino)acetyl)piperazin-1-yl)pyridin-3-yl)-7-(1-methyl-1H-pyrazol-4-yl)imidazo[1,2-a]pyridine-3-car-bonitrile] | 39 nM |
| CN(C)C(C(=O)N1CCN(c2ccc(-c3cc(-c4cnn(C)c4)cc4ncc(C#N)n34)cn2)CC1)c1ccc(F)c(Cl)c1 (centres unmarked) [Example 41, 5-(6-(4-(2-(3-chloro-4-fluorophenyl)-2-(dimethylamino)acetyl)piperazin-1-yl)pyridin-3-yl)-7-(1-methyl-1H-pyrazol-4-yl)imidazo[1,2-a]pyridine-3-carbonitrile] | 12 nM |
